Legend:
Type in all cases: in vivo
[1] = system: field corn (Zea mays L., var. Dekalb 535, CORN); assay: Post-emerge test, crop safety; conditions: post-emerge, 14 days after application, rating scale 0-100
Procedure, shortened: (§1)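 Compounds in acetone were track-sprayed at 187 l/ha, 15–1000 g ai/ha, onto sandy loam pots. Pre-emerge seeds were sown one day before spraying, with surface watering afterwards. Post-emerge plants were at the 2–3 leaf stage and sprayed with 0.25% v/v non-ionic surfactant. Injury was rated 0–100 at 14 days.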

[2] = system: upland rice (Oryza sp., var. Tebonnet, RICE); assay: Post-emerge test, crop safety; conditions: post-emerge, 14 days after application, rating scale 0-100
Procedure, shortened: as §1

[3] = system: field corn (Zea mays L., var. Dekalb 535, CORN); assay: Pre-emerge test, crop safety; conditions: crop damage rating 0-100, 14 days after application
Procedure, shortened: (§2)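 Compounds in acetone were track-sprayed at 15-1000 g ai/ha (187 l/ha) on sandy loam pots: pre-emerge one day after seeding, post-emerge at 2-3 leaf stage with 0.25% v/v non-ionic surfactant. Phytotoxicity was rated 14 days later on a 0 (no damage) to 100 (complete death) scale.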

[4] = system: upland rice (Oryza sp., var. Tebonnet, RICE); assay: Pre-emerge test, crop safety; conditions: crop damage rating 0-100, 14 days after application
Procedure, shortened: as §2

[5] = system: johnsongrass (Sorghum halepense, SORHA); assay: Post-emerge test, greenhouse herbicide activity screening; conditions: post-emerge, 14 days after application, rating scale 0-100
Procedure, shortened: (§3)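 Fourteen days after spraying, crop and weed injury was graded visually from 0, no effect, to 100, every plant dead. Test substances were dissolved in acetone and applied at 15–1000 g ai/ha with a flat-fan nozzle. Application was either pre-emergence, one day after sowing, or post-emergence at the 2–3 leaf stage.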

[6] = system: large crabgrass (Digitaria sanguinalis, DIGSA); assay: as above; conditions: post-emerge, 14 days after application, rating scale 0-100
Procedure, shortened: as §3

[7] = system: redroot pigweed (Amaranthus retroflexus, AMARE); assay: as above; conditions: post-emerge, 14 days after application
Procedure, shortened: as §3

[8] = system: ivyleaf morningglory (Ipomoea hederacea, IPOHE); assay: as above; conditions: post-emerge, 14 days after application, rating scale 0-100
Procedure, shortened: as §3

[9] = system: velvetleaf (Abutilon theophrasti, ABUTH); assay: as above; conditions: post-emerge, 14 days after application, rating scale 0-100
Procedure, shortened: as §3

[10] = system: green foxtail (Setaria viridis, SETVI); assay: as above; conditions: post-emerge, 14 days after application, rating scale 0-100
Procedure, shortened: as §3

[11] = system: sicklepod (Cassia obtusifolia, CASOB); assay: as above; conditions: post-emerge, 14 days after application, rating scale 0-100
Procedure, shortened: as §3

[12] = system: lambsquarters (Chenopodium album, CHEAL); assay: as above; conditions: post-emerge, 14 days after application, rating scale 0-100
Procedure, shortened: as §3

[13] = system: barnyardgrass (Echinochloa crus-galli, ECHCG); assay: Pre-emerge test, greenhouse herbicide activity screening; conditions: phytotoxicity rating 0-100, 14 days after application
Procedure, shortened: as §1

[14] = system: johnsongrass (Sorghum halepense, SORHA); assay: as above; conditions: phytotoxicity rating 0-100, 14 days after application
Procedure, shortened: as §1

[15] = system: large crabgrass (Digitaria sanguinalis, DIGSA); assay: as above; conditions: phytotoxicity rating 0-100, 14 days after application
Procedure, shortened: as §1

[16] = system: ivyleaf morningglory (Ipomoea hederacea, IPOHE); assay: as above; conditions: phytotoxicity rating 0-100, 14 days after application
Procedure, shortened: as §1

[17] = system: velvetleaf (Abutilon theophrasti, ABUTH); assay: as above; conditions: phytotoxicity rating 0-100, 14 days after application
Procedure, shortened: as §1

[18] = system: green foxtail (Setaria viridis, SETVI); assay: as above; conditions: phytotoxicity rating 0-100, 14 days after application
Procedure, shortened: as §1

[19] = system: sicklepod (Cassia obtusifolia, CASOB); assay: as above; conditions: phytotoxicity rating 0-100, 14 days after application
Procedure, shortened: as §1

[20] = system: lambsquarters (Chenopodium album, CHEAL); assay: as above; conditions: phytotoxicity rating 0-100, 14 days after application
Procedure, shortened: as §1

[21] = system: redroot pigweed (Amaranthus retroflexus, AMARE); assay: as above; conditions: phytotoxicity rating 0-100, 14 days after application
Procedure, shortened: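 Herbicidal damage is scored 0 (none) to 100 (complete plant death) two weeks after a simulated field spray. Rates span 15–1000 g ai/ha, delivered in acetone at 187 l/ha. For post-emergence treatments, plants have 2–3 leaves and the spray carries 0.25% v/v non-ionic surfactant.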

## COc1c(Cl)cc(F)c(-n2c(=O)cc(C(F)(F)F)n(C)c2=O)c1NC(=O)OCc1c(Cl)cccc1Cl [4-24]
[1]; 63 g ai/ha
  phytotoxicity rating CORN (crop damage): 35
[1]; 250 g ai/ha
  phytotoxicity rating CORN (crop damage): 70
[2]; 63 g ai/ha
  phytotoxicity rating RICE (crop damage): 20
[2]; 250 g ai/ha
  phytotoxicity rating RICE (crop damage): 45
[3]; 63 g ai/ha
  Pre-emerge Herbicidal Activity CORN: 0
[3]; 250 g ai/ha
  Pre-emerge Herbicidal Activity CORN: 5
[4]; 63 g ai/ha
  Pre-emerge Herbicidal Activity RICE: 10
[4]; 250 g ai/ha
  Pre-emerge Herbicidal Activity RICE: 50
[5]; 63 g ai/ha
  phytotoxicity rating SORHA: 40
[5]; 250 g ai/ha
  phytotoxicity rating SORHA: 60
[6]; 63 g ai/ha
  phytotoxicity rating DIGSA: 40
[6]; 250 g ai/ha
  phytotoxicity rating DIGSA: 50
[7]; 63 g ai/ha, rating scale 0-100 (0 no damage, 100 complete death)
  phytotoxicity rating AMARE: 100
[7]; 250 g ai/ha, rating scale 0-100
  phytotoxicity rating AMARE: 100
[8]; 63 g ai/ha
  phytotoxicity rating IPOHE: 100
[8]; 250 g ai/ha
  phytotoxicity rating IPOHE: 100
[9]; 63 g ai/ha
  phytotoxicity rating ABUTH: 100
[9]; 250 g ai/ha
  phytotoxicity rating ABUTH: 100
[10]; 63 g ai/ha
  phytotoxicity rating SETVI: 50
[10]; 250 g ai/ha
  phytotoxicity rating SETVI: 80
[11]; 63 g ai/ha
  phytotoxicity rating CASOB: 70
[11]; 250 g ai/ha
  phytotoxicity rating CASOB: 100
[12]; 63 g ai/ha
  phytotoxicity rating CHEAL: 100
[12]; 250 g ai/ha
  phytotoxicity rating CHEAL: 100
[13]; 63 g ai/ha
  Pre-emerge Herbicidal Activity ECHCG: 10
[13]; 250 g ai/ha
  Pre-emerge Herbicidal Activity ECHCG: 50
[14]; 63 g ai/ha
  Pre-emerge Herbicidal Activity SORHA: 10
[14]; 250 g ai/ha
  Pre-emerge Herbicidal Activity SORHA: 40
[15]; 63 g ai/ha
  Pre-emerge Herbicidal Activity DIGSA: 30
[15]; 250 g ai/ha
  Pre-emerge Herbicidal Activity DIGSA: 70
[16]; 63 g ai/ha
  Pre-emerge Herbicidal Activity IPOHE: 20
[16]; 250 g ai/ha
  Pre-emerge Herbicidal Activity IPOHE: 30
[17]; 63 g ai/ha
  Pre-emerge Herbicidal Activity ABUTH: 50
[17]; 250 g ai/ha
  Pre-emerge Herbicidal Activity ABUTH: 100
[18]; 63 g ai/ha
  Pre-emerge Herbicidal Activity SETVI: 90
[18]; 250 g ai/ha
  Pre-emerge Herbicidal Activity SETVI: 100
[19]; 63 g ai/ha
  Pre-emerge Herbicidal Activity CASOB: 0
[19]; 250 g ai/ha
  Pre-emerge Herbicidal Activity CASOB: 80
[20]; 63 g ai/ha
  Pre-emerge Herbicidal Activity CHEAL: 100
[20]; 250 g ai/ha
  Pre-emerge Herbicidal Activity CHEAL: 100
[21]; 63 g ai/ha
  Pre-emerge Herbicidal Activity AMARE: 100
[21]; 250 g ai/ha
  Pre-emerge Herbicidal Activity AMARE: 100

— US6355799B1, “Substituted benzene compounds, process for their preparation, and herbicidal and defoliant compositions containing them” (ISK Americas Incorporated, priority 1997, dated 2002)
